Assay results as given in patent US20050287594A1 (priority 2000, published 2005).
Like-named read-outs stand apart in the source and are kept apart here.

Key:
[1] = molecular target: T1, cALDH-I (Rattus norvegicus, UniProt P51647); assay type: binding
T1 construct: His tag (pTrcHis vector) (N); made in house; host or cells: E. coli BL-21
T1 sequence (P51647 1-501): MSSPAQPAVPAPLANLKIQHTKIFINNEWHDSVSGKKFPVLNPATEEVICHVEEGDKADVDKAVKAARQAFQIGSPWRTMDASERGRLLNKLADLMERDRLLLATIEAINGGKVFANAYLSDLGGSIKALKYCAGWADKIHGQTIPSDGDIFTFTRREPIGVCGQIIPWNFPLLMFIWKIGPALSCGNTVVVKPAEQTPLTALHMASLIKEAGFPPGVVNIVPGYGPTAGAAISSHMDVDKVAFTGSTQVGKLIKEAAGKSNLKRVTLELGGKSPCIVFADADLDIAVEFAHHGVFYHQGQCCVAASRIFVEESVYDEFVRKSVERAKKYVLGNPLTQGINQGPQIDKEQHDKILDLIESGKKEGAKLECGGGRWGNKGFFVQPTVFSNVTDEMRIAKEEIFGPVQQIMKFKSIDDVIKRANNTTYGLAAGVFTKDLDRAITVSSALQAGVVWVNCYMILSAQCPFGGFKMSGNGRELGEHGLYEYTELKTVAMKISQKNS

[2] = molecular target: T1, cALDH-I; assay type: biochemical
[3] = pH 8
[4] = molecular target: T1, cALDH-I; conditions: read-out: Michealis constant Km, reported literature value; cited from earlier work
[5] = tested on: rat testis proteome; assay type: binding

Question: With `CCCCCCCCOS(=O)(=O)c1ccccn1` [Sulfonate 15, 1-(2-Pyridylsulfonyl)oxo-octane] as the compound, how does the “blocking of the labeling of cALDH-I by 1” value [1] read?
Answer: The value was “effectively blocked the labeling of cALDH-I by 1”.

Question: What about the “average Kobs/[I]” value [2] of the same compound?
Answer: The value was “(9.7+1.8)×10^3 M^−min^−”.

Question: What about the “cALDH-I inactivation (in words)” value [2] of the same compound?
Answer: The value was “completely inactivated”.

Question: And the “effect of NAD^+ on inactivation of cALDH-I by 15” value [2]?
Answer: Its value is “completely protected the enzyme from inactivation”.

Question: And the “stability in reaction buffer” value [3]?
Answer: The value was “stable to the assay conditions employed”.

Question: For `CCC=O` [propionaldehyde, reference compound], which Km ([2]; read-out: Michealis constant Km) is on record?
Answer: Its Km is 4.2 µM.

Question: And the Km [4]?
Answer: Its Km is 6.5 µM.

Question: For `O=C(CCCCCCCCCOS(=O)(=O)c1ccccn1)NCCCCCNC(=O)CCCC[C@@H]1SC[C@@H]2NC(=O)N[C@@H]21` [sulfonate 1, 10-((2-pyridylsulfonyl)oxo)-N-biotinamidopentyldecanamide], which “specific (heat-sensitive) proteome reactivity” value [5] is on record?
Answer: Its value is “labeled a 55 kDa protein and a 31 kDa protein”.

Question: For `O=C(CCCCCCCCCOS(=O)(=O)c1ccccc1)NCCCCCNC(=O)CCCCC1SCC2NC(=O)NC21` (stereo not drawn) [sulfonate 2, 10-((Benzenesulfonyl)oxo)-N-biotinamidopentyldecanamide], which “specific (heat-sensitive) proteome reactivity” value [5] is on record?
Answer: The value was “reacted with three of the four proteins labeled by 4 and 5”.

Question: With `Cc1ccc(S(=O)(=O)OCCCCCCCCCC(=O)NCCCCCNC(=O)CCCCC2SCC3NC(=O)NC32)cc1` (stereo not drawn) [sulfonate 3, 10-((p-Toluenesulfonyl)oxo)-N-biotinamidopentyldecanamide] as the compound, how does the “specific (heat-sensitive) proteome reactivity” value [5] read?
Answer: The value was “specifically labeled one 55 kDa protein”.

Question: Which “nonspecific (heat-insensitive) reactivity with the preheated proteome” value [5] does the source give for `COc1ccc(S(=O)(=O)OCCCCCCCCCC(=O)NCCCCCNC(=O)CCCCC2SCC3NC(=O)NC32)cc1` (stereo not drawn) [sulfonate 4, 10-((4-Methoxybenzenesulfonyl)oxo)-N-biotinamidopentyldecanamide] here?
Answer: Its value is “showed significant additional reactivity with the preheated proteome”.

Question: What about the “specific (heat-sensitive) proteome reactivity” value [5] of the same compound?
Answer: The value was “labeled four members of the proteome in a heat-sensitive manner”.

Question: Which “nonspecific (heat-insensitive) reactivity with the preheated proteome” value [5] does the source give for `CS(=O)(=O)OCCCCCCCCCC(=O)NCCCCCNC(=O)CCCCC1SCC2NC(=O)NC21` (stereo not drawn) [sulfonate 5, 10-((Methylsulfonyl)oxo)-N-biotinamidopentyldecanamide] here?
Answer: The value was “showed significant additional reactivity with the preheated proteome”.

Question: And the “specific (heat-sensitive) proteome reactivity” value [5]?
Answer: The value was “labeled four members of the proteome in a heat-sensitive manner”.

Question: For `CCCCS(=O)(=O)OCCCCCCCCCC(=O)NCCCCCNC(=O)CCCCC1SCC2NC(=O)NC21` (stereo not drawn) [sulfonate 6, 10-((Butylsulfonyl)oxo)-N-biontinamidopentyldecanamide], which “specific (heat-sensitive) proteome reactivity” value [5] is on record?
Answer: Its value is “specifically labeled one 55 kDa protein”.

Question: Which “specific (heat-sensitive) proteome reactivity” value [5] does the source give for `O=C(CCCCCCCCCOS(=O)(=O)c1ccc([N+](=O)[O-])cc1)NCCCCCNC(=O)CCCCC1SCC2NC(=O)NC21` (stereo not drawn) [sulfonate 8, 10-((4-Nitrobenzenesulfonyl)oxo)-N-biotinamidopentyldecanamide] here?
Answer: The value was “reacted specifically with a 55 kDa protein, as well as two additional proteins poorly labeled by the other reagents”.

Question: With `O=C(CCCCCCCCCOS(=O)(=O)c1cccc2cccnc12)NCCCCCNC(=O)CCCCC1SCC2NC(=O)NC21` (stereo not drawn) [sulfonate 9, 10-((8-Quinolinesulfonyl)oxo)-N-biotinamidopentyldecanamide] as the compound, how does the “specific (heat-sensitive) proteome reactivity” value [5] read?
Answer: Its value is “reacted specifically with a 55 kDa protein, as well as two additional proteins poorly labeled by the other reagents”.

Question: Which “specific (heat-sensitive) proteome reactivity” value [5] does the source give for `O=C(CCCCCCCCCOS(=O)(=O)c1ccc2ccccc2c1)NCCCCCNC(=O)CCCCC1SCC2NC(=O)NC21` (stereo not drawn) [sulfonate 10, 10-((2-Naphthalenesulfonyl)oxo)-N-biotinamidopentyldecanamide] here?
Answer: The value was “specifically labeled one 55 kDa protein”.

Question: For `O=C(CCCCCCCCCOS(=O)(=O)c1cccs1)NCCCCCNC(=O)CCCCC1SCC2NC(=O)NC21` (stereo not drawn) [sulfonate 11], which “specific (heat-sensitive) proteome reactivity” value [5] is on record?
Answer: The value was “reacted specifically with a 55 kDa protein, as well as two additional proteins poorly labeled by the other reagents”.

Question: For `CCOS(=O)(=O)c1ccccn1` [sulfonate 16, 1-(2-Pyridylsulfonyl)oxo-ethane], which “blocking of the labeling of cALDH-I by 1” value [1] is on record?
Answer: Its value is “did not block the labeling of cALDH-I by 1”.

Question: And the “% Activity Remaining” value [2]?
Answer: The value was 42%.

Question: And the “Kobs/[I]” value [2]?
Answer: The value was 0.00417 M⁻¹ s⁻¹.

Question: What about the “cALDH-I inactivation (in words)” value [2] of the same compound?
Answer: Its value is “weak”.

Question: And the “second order inhibition rate constant, times lower than that determined for 15” value [2]?
Answer: The value was 40000 times.

Question: Which “blocking of the labeling of cALDH-I by 1” value [1] does the source give for `CCCCCCCCOS(C)(=O)=O` [sulfonate 17, 1-(Methanesulfonyl)oxo-octane] here?
Answer: Its value is “did not block the labeling of cALDH-I by 1”.

Question: What about the “% Activity Remaining” value [2] of the same compound?
Answer: Its value is 100%.

Question: What about the “cALDH-I inactivation (in words)” value [2] of the same compound?
Answer: The value was “no inhibition”.
